Key:
[1] = test system: DNCB-induced AD mice; experiment: Scratching behavior test in DNCB-induced AD mice; format: in vivo, mouse (female BALB/c); conditions: DNCB group 107
Protocol: (§1) Female BALB/c mice (6-8 weeks old) provided by the Comparative Medicine Center of Yangzhou University were used in the experiment. All mice were housed under standard feeding conditions with a 12-hour light-dark cycle, and food and water were freely accessible to them. To establish the atopic dermatitis mouse model, the hair on the back of the mice was removed using a shaver and depilatory cream on Day 0 of the experiment. On Day 1 of the experiment, 100 μL of 20 g/L DNCB was applied to the back and 10 μL to the ear of each mouse to induce atopic dermatitis. On Day 5, 8 and 11 of the experiment, 100 μL of 5 g/L DNCB was applied to the back, 10 μL to the ear of each mouse every morning to challenge atopic dermatitis. The mice were euthanized 24 hours after the final challenge. […]
Prior to the start of the experiment, the mice were allowed to acclimatize to the cages for 1 hour to ensure they could relax and display normal behavioral patterns. During this period, the behavior of the mice scratching the skin of their neck, ears and back with their paws was closely observed and recorded.

[2] = Body weight in DNCB-induced AD mice; format: in vivo, mouse (female BALB/c); conditions: different-dose treatment groups (5 and 20 g/L topical); DNCB group decreased significantly
Protocol: as §1
(§2) The skin of the mice was photographed at the same time every day to record the skin condition, and the body weight of the mice was measured.

[3] = test system: DNCB-induced AD mice; experiment: Ear and dorsal skin thickness in DNCB-induced AD mice; format: in vivo, mouse (female BALB/c); conditions: for average ear skin thickness: DNCB group 0.44; for average dorsal skin thickness: DNCB group 785
Protocol: (§3) Female BALB/c mice (6-8 weeks old) provided by the Comparative Medicine Center of Yangzhou University were used in the experiment. All mice were housed under standard feeding conditions with a 12-hour light-dark cycle, and food and water were freely accessible to them. To establish the atopic dermatitis mouse model, the hair on the back of the mice was removed using a shaver and depilatory cream on Day 0 of the experiment. On Day 1 of the experiment, 100 μL of 20 g/L DNCB was applied to the back and 10 μL to the ear of each mouse to induce atopic dermatitis. On Day 5, 8 and 11 of the experiment, 100 μL of 5 g/L DNCB was applied to the back, 10 μL to the ear of each mouse every morning to challenge atopic dermatitis. The mice were euthanized 24 hours after the final challenge.
(§4) 5 days after the establishment of the atopic dermatitis model, the mice were randomly divided into 4 groups (6 mice per group): a) normal control group (Ctrl group); b) model group (DNCB group), where 100 μL of normal saline was applied to the back and 10 μL to the ear of each mouse every day; c) low-dose group (DNCB+LSRO group), where 100 μL of 5 g/L aqueous solution of sulfated gluco-galactooligosaccharide was applied to the back of each mouse every day, and 10 μL of 5 g/L aqueous solution of sulfated gluco-galactooligosaccharide was applied to the ear of each mouse every day; and d) high-dose group (DNCB+HSRO group), where 100 μL of 20 g/L aqueous solution of sulfated gluco-galactooligosaccharide was applied to the back of each mouse every day, and 10 μL of 20 g/L aqueous solution of sulfated gluco-galactooligosaccharide was applied to the ear of each mouse every day. The skin condition of the mice was recorded daily.
The ear thickness was accurately measured every day using an electronic caliper. Before the mice were euthanized, the thickness of the dorsal skin was measured with a caliper. Three measurements were taken at different positions on the mid-back, near the neck, and near the tail, and the average value was taken as the final measurement result.

[4] = test system: DNCB-induced AD mice; experiment: Dorsal skin inflammatory lesions (daily photographs) in DNCB-induced AD mice; format: in vivo, mouse (female BALB/c); conditions: treatment groups (5 and 20 g/L topical) compared with DNCB group
Protocol: as §1, §2

[5] = test system: DNCB-induced AD mice; experiment: Skin histology, H&E staining, in DNCB-induced AD mice; format: in vivo, mouse (female BALB/c); conditions: treatment groups (5 and 20 g/L topical) compared with DNCB group
Protocol: as §1

[6] = test system: mast cells in skin tissues; experiment: Skin histology, toluidine blue (TBO) staining, mast cell number; format: in vivo, mouse (female BALB/c); conditions: dorsal skin, DNCB group 56
Protocol: as §1

[7] = test system: IL-1β; experiment: qRT-PCR of IL-1β mRNA in ear and dorsal skin of DNCB-induced AD mice; format: in vivo, mouse (female BALB/c); conditions: dorsal and ear skin tissues; 5 and 20 g/L topical, compared with DNCB group
Protocol: as §1
(§5) After all the mice were euthanized, an appropriate amount of ear and dorsal skin tissues was harvested. […] Real-time fluorescent quantitative PCR (qRT-PCR) was performed to specifically detect the expression of IL-1β, IL-4, IL-8 and TSLP.

[8] = test system: IL-4; experiment: qRT-PCR of IL-4 mRNA in ear and dorsal skin of DNCB-induced AD mice; format: in vivo, mouse (female BALB/c); conditions: dorsal and ear skin tissues; 5 and 20 g/L topical, compared with DNCB group
Protocol: as §1, §5

[9] = test system: IL-8; experiment: qRT-PCR of IL-8 mRNA in ear and dorsal skin of DNCB-induced AD mice; format: in vivo, mouse (female BALB/c); conditions: dorsal and ear skin tissues; 5 and 20 g/L topical, compared with DNCB group
Protocol: as §1, §5

[10] = test system: TSLP; experiment: qRT-PCR of TSLP mRNA in ear and dorsal skin of DNCB-induced AD mice; format: in vivo, mouse (female BALB/c); conditions: dorsal and ear skin tissues; 5 and 20 g/L topical, compared with DNCB group
Protocol: as §1, §5

[11] = test system: IgE; experiment: Determination of IgE in serum (ELISA) of DNCB-induced AD mice; format: in vivo, mouse (female BALB/c); conditions: DNCB group 12.65
Protocol: as §1
(§6) Before euthanasia, the mice were anesthetized, and blood samples were collected from the orbit. The blood samples of the mice in each group were analyzed using a fully automatic hematology analyzer. […] The levels of IgE and IL-4 were measured using a double-antibody sandwich enzyme-linked immunosorbent assay, according to the manufacturer's instructions.

[12] = test system: IL-4; experiment: Determination of IL-4 in serum (ELISA) of DNCB-induced AD mice; format: in vivo, mouse (female BALB/c); conditions: DNCB group 253.5
Protocol: as §1, §6

[13] = test system: DNCB-induced AD mice; experiment: Weight of spleens and lymph nodes in DNCB-induced AD mice; format: in vivo, mouse (female BALB/c); conditions: for average weight of the lymph nodes: DNCB group 16.4; for average weight of the spleen: DNCB group 221
Protocol: as §3, §4
After the mice were euthanized, the spleens and lymph nodes of the mice in each group were harvested and weighed.

[14] = test system: HaCaT cells stimulated by TNF-α/IFN-γ; experiment: mRNA expression of inflammatory cytokines in HaCaT cells stimulated by TNF-α/IFN-γ; format: cell-based, human; conditions: TNF-α/IFN-γ 10 ng/ml 18 h, then 100 or 200 μg/mL for 6 h
Protocol: HaCaT cells were used in the experiment, and their culture was carried out in high-glucose DMEM medium containing 10% fetal bovine serum, 1% streptomycin, and 1% erythromycin. The cells were incubated in a carbon dioxide incubator at 37° C. and passaged using trypsin digestion.
• 1) HaCaT cells were uniformly seeded in 6-well plates at a density of 5×10^5 cells per well. Control group and experimental groups were set up, namely the Ctrl group, TNF-α+IFN-γ group, LSRO+TNF-α+IFN-γ group and HSRO+TNF-α+IFN-γ group. • 2) TNF-α/IFN-γ (10 ng/ml) was added to the TNF-α+IFN-γ, LSRO+TNF-α+IFN-γ and HSRO+TNF-α+IFN-γ groups, respectively, while an equal volume of PBS solution (pH=7.2) was added to the Ctrl group. The plates were shaken crosswise to mix thoroughly, followed by incubation at 37° C. for 18 h in a carbon dioxide incubator. • 3) PBS, PBS, 100 μg/mL and 200 μg/mL sulfated gluco-galactooligosaccharide were added to the Ctrl, TNF-α+IFN-γ, LSRO+TNF-α+IFN-γ and HSRO+TNF-α+IFN-γ groups, respectively. The 6-well plates were placed in a carbon dioxide incubator at 37° C., and the cells were harvested after 6 h of incubation.
HaCaT cells were harvested, followed by RNA extraction and reverse transcription into cDNA. The expression levels of related genes such as IL-4, IL-6 and TNF-α were detected via fluorescent quantitative PCR. […]

[15] = prior studies by the inventors (Carbohydrate Polymers 2025, 347:122782; CN 114533756 A); cited from earlier work
[16] = DNCB+HSRO group, 20 g/L topical daily
[17] = DNCB+LSRO group, 5 g/L topical daily

sulfated gluco-galactooligosaccharide
average scratching frequency ([1]; DNCB+HSRO group, 20 g/L aqueous solution topical daily (100 μL back, 10 μL ear)): 58 times
average scratching frequency ([1]; DNCB+LSRO group, 5 g/L aqueous solution topical daily (100 μL back, 10 μL ear)): 76 times
DNCB-induced weight loss (body weight) [2]: not obvious
average ear skin thickness [3, 16]: 0.33 mm
average dorsal skin thickness [3, 16]: 545 μm
average ear skin thickness [3, 17]: 0.375 mm
average dorsal skin thickness [3, 17]: 606 μm
dorsal skin inflammatory lesions (dryness, erythema, erosion, edema) [4]: effectively alleviated these symptoms
H&E staining of ear and dorsal skin (epidermal hyperplasia, hyperkeratosis, inflammatory cell infiltration) [5]: maintained the skin structure integrity, alleviated skin lesions and protected skin tissues from damage
average number of mast cells [6, 16]: 26
average number of mast cells [6, 17]: 32
mRNA level of IL-1β [7]: significantly decreased in a dose-dependent manner
mRNA level of IL-4 [8]: significantly decreased in a dose-dependent manner
mRNA level of IL-8 [9]: significantly decreased in a dose-dependent manner
mRNA level of TSLP [10]: significantly decreased in a dose-dependent manner
average level of IgE in serum [11, 16]: 10.01 µg/mL
average level of IgE in serum [11, 17]: 10.45 µg/mL
average level of IL-4 in serum [12, 16]: 201 pg/mL
average level of IL-4 in serum [12, 17]: 232 pg/mL
average weight of the lymph nodes [13, 16]: 9.45 mg
average weight of the spleen [13, 16]: 165 mg
average weight of the lymph nodes [13, 17]: 10.3 mg
average weight of the spleen [13, 17]: 183 mg
mRNA expression of inflammatory cytokines (IL-4, IL-6, TNF-α) [14]: significantly inhibit the elevation of inflammatory cytokines induced by TNF-α/IFN-γ
anticoagulant activity [15]: has anticoagulant activity
